Assay results as given in patent publication US20250333381A1, “SOLID STATE FORMS” (AMGEN INC., priority 2024, published 2025).
Converted amounts (≈) assume the structure as drawn. “Also recorded” adds a separate entry of the source. Counter-ions that a name gives are not always drawn.

What was measured:
[1] = Solid form screen: thermodynamic stability and form conversion; type: physicochemical; details: for Form conversion upon heating: heating (under vacuum); for Thermodynamic stability among crystalline forms: screening process of the HCl and HBr salts
Protocol: A solid form screen of HCl and HBr salts of Compound A was conducted. Crystalline salt forms of Compound A were identified, including a crystalline HCl salt form, a crystalline toluene solvate of a crystalline HCl salt form (also referred to herein an HCl salt toluene solvate form of Compound A), a crystalline HBr salt form, a crystalline toluene solvate of a crystalline HBr salt form (also referred to herein an HBr salt toluene solvate form of Compound A). Amorphous salt forms of Compound A were also identified, including an amorphous HCl salt form and an amorphous HBr salt form.
Further, the DV S data of both crystalline HCl and HBr salts form of Compound A indicate that these two materials are non-hygroscopic.

[2] = Dynamic Vapor Sorption (DVS), hygroscopicity; type: physicochemical; details: 25° C., 0% RH-90% RH-0% RH
Protocol: Dynamic Vapor Sorption (DVS): Water sorption data were collected using a DVS Adventure dynamic vapor sorption analyzer (Surface Measurement Systems). The relative humidity at 25° C. was calibrated against the deliquescence point of LiCl, Mg(NO3)2 and KCl. Approximately 5-15 mg were loaded onto a tared metal pan. Data were collected from 0 to 90 to 0% RH in 5% increments at 25° C. Progression to the next stage occurred when the change in mass with respect to time was less than 0.002 per minute or after 180 minutes, whichever occurred first. The minimum stage time was 10 minutes. [table]

[3] = Dissolution profiles, PION MicroDiss (FIG. 16); type: physicochemical; details: FaSSIF + 0.2% Tween 80, ~37° C.; for Rate and extent of dissolution: compared to amorphous free base
Protocol: Dissolution profiles were generated comparing the free base anhydrous crystalline form of Compound A, the amorphous free base form of Compound A, the crystalline HCl salt form of Compound A, and the crystalline HBr salt form of Compound A. The dissolution profiles were obtained by employing a PION MicroDiss profiler equipped with Rainbow […] 8-channel in-situ fiber optic UV-vis spectrometer, heating blocks and magnetic stirrers. Dissolution media was equilibrated at 37° C. using Thermo Neslab RTE 7 recirculating chiller prior to addition of samples. Calibration standards were prepared by serial dilution from a methanol stock solution at 12 levels spanning concentrations 0-38 μg/mL. Samples were analyzed simultaneously in duplicate using the parameters described in the table below. [table]

[4] = Solubility in FaSSIF (shake 2 hr, HPLC); type: physicochemical; details: for Solubility: 2 h
Protocol: Solubility: Samples were prepared by adding ˜10 mg of the solid to a small centrifuge tube followed by the addition of 1.75 mL freshly prepared FaSSIF solution. The pH of each suspension was measured prior to shaking the samples in an Eppendorf ThermoMixer F1.5 at 37° C. and 1500 rpm for 2 hr. The samples were centrifuged, and the pH of each suspension was measured again at the T=2 hr timepoint. The samples were filtered through Millex 0.20 μm PTFE syringe filters and the filtrates were diluted by a factor of 2 with acetonitrile. Solubility samples were prepared in duplicate. […] The samples were analyzed by HPLC using the method parameters described in the table below. [table] […] The samples were analyzed by HPLC using the method parameters described in the table below. [table]

[5] = Dissolution profiles vs Napsylate, Tosylate, Besylate salt forms (FIGS. 35(a), 35(b)); type: physicochemical; details: for Cmax of dissolution profile: Besylate salts
Source text: (§1) FIGS. 35(a) and 35(b) show dissolution profiles of crystalline HCl Form 1 of Compound A of this disclosure compared to Napsylate, Tosylate, and Besylate salt forms of Compound A. The concentrations of the salts used are roughly double in FIG. 35(b) than in FIG. 35(a).
as §1, with “A. Besylate, Tosylate Napsylate salt forms of Compound A were prepared as described in WO 2021/092295.” for “A.”

HS patients = details: vs. placebo, pre-specified Hurley Stage III (severe HS) patients, 12 weeks; cited from earlier work
C3G patients = details: compared to placebo, 26 weeks of blinded treatment; cited from earlier work

Cc1ccc(NC(=O)[C@H]2CCCN(C(=O)c3c(C)cccc3F)[C@H]2c2ccc(NC3CCCC3)cc2)cc1C(F)(F)F [HCl salt toluene solvate form of Compound A] [(2R,3S)-2-(4-(cyclopentylamino)phenyl)-1-(2-fluoro-6-methylbenzoyl)-N-(4-methyl-3-(trifluoromethyl)phenyl)piperidine-3-carboxamide]
Form conversion upon heating [1]: convert to the respective HBr and HCl crystalline salt forms of Compound A upon heating; also recorded: converts to the HCl crystalline salt form of Compound A upon heating under vacuum at about 60 °C for about 2 hours

Cc1ccc(NC(=O)[C@H]2CCCN(C(=O)c3c(C)cccc3F)[C@H]2c2ccc(NC3CCCC3)cc2)cc1C(F)(F)F [Crystalline HBr salt form, (2R,3S)-2-(4-(cyclopentylamino)phenyl)-1-(2-fluoro-6-methylbenzoyl)-N-(4-methyl-3-(trifluoromethyl)phenyl)piperidine-3-carboxamide]
Hygroscopicity (DVS) [2]: non-hygroscopic | Rate and extent of dissolution ([3]; listed as crystalline HBr salt form of Compound A): performed similar in terms of rate and extent of dissolution to the amorphous form of avacopan | Thermodynamic stability among crystalline forms [1]: most thermodynamically stable crystalline forms identified in the screening process | Solubility relative to Besylate, Tosylate and Napsylate forms [4]: significantly more soluble

Cc1ccc(NC(=O)[C@H]2CCCN(C(=O)c3c(C)cccc3F)[C@H]2c2ccc(NC3CCCC3)cc2)cc1C(F)(F)F [Crystalline HCl salt form, (2R,3S)-2-(4-(cyclopentylamino)phenyl)-1-(2-fluoro-6-methylbenzoyl)-N-(4-methyl-3-(trifluoromethyl)phenyl)piperidine-3-carboxamide]
Hygroscopicity (DVS) [2]: non-hygroscopic | Rate and extent of dissolution ([3]; listed as crystalline HCl salt form of Compound A): follows very closely | Cmax of dissolution profile ([3]; compared to crystalline HBr salt and amorphous form): lesser Cmax | Thermodynamic stability among crystalline forms [1]: most thermodynamically stable crystalline forms identified in the screening process | Tmax of dissolution profile ([5]; Besylate salt forms): higher than the Napsylate, Tosylate, and Besylate salt forms of Compound A | Cmax of dissolution profile ([5]; FaSSGF+0.2% tween 80 (pH 1.2)): highest Cmax of all salts | Cmax of dissolution profile ([5]; FaSSIF+0.2% tween 80 (pH 6.5)): highest Cmax of all salts | Solubility relative to Besylate, Tosylate and Napsylate forms [4]: significantly more soluble

Cc1ccc(NC(=O)[C@H]2CCCN(C(=O)c3c(C)cccc3F)[C@H]2c2ccc(NC3CCCC3)cc2)cc1C(F)(F)F [HBr salt toluene solvate form of Compound A] [(2R,3S)-2-(4-(cyclopentylamino)phenyl)-1-(2-fluoro-6-methylbenzoyl)-N-(4-methyl-3-(trifluoromethyl)phenyl)piperidine-3-carboxamide]
Form conversion upon heating [1]: convert to the respective HBr and HCl crystalline salt forms of Compound A upon heating; also recorded: converts to the HCl crystalline salt form of Compound A upon heating under vacuum from about 100 °C to about 125 °C from about 4 to about 24 hours

Cc1ccc(NC(=O)[C@H]2CCCN(C(=O)c3c(C)cccc3F)[C@H]2c2ccc(NC3CCCC3)cc2)cc1C(F)(F)F [Compound A, (2R,3S)-2-(4-(cyclopentylamino)phenyl)-1-(2-fluoro-6-methylbenzoyl)-N-(4-methyl-3-(trifluoromethyl)phenyl)piperidine-3-carboxamide]
HiSCR (Hidradenitis Suppurativa Clinical Response) (HS patients): statistically significant dose-dependent improvement in HiSCR | Renal function as measured by eGFR (C3G patients): statistically significant improvement in renal function

Cc1ccc(NC(=O)[C@H]2CCCN(C(=O)c3c(C)cccc3F)[C@H]2c2ccc(NC3CCCC3)cc2)cc1C(F)(F)F [Free Base Anhydrous Crystalline Form, (2R,3S)-2-(4-(cyclopentylamino)phenyl)-1-(2-fluoro-6-methylbenzoyl)-N-(4-methyl-3-(trifluoromethyl)phenyl)piperidine-3-carboxamide, reference compound]
Solubility [4]: 0.00171 mg/mL (≈ 2.94 µM)

Cc1ccc(NC(=O)[C@H]2CCCN(C(=O)c3c(C)cccc3F)[C@H]2c2ccc(NC3CCCC3)cc2)cc1C(F)(F)F [Free Base Amorphous Form, (2R,3S)-2-(4-(cyclopentylamino)phenyl)-1-(2-fluoro-6-methylbenzoyl)-N-(4-methyl-3-(trifluoromethyl)phenyl)piperidine-3-carboxamide, reference compound]
Solubility [4]: 0.01944 mg/mL (≈ 33.4 µM)
